Patent publication US11472799B2, “Serine threonine kinase (AKT) degradation / disruption compounds and methods of use” (Icahn School of Medicine at Mount Sinai, priority 2018, dated 2022)

The compounds below were run on AKT (assay: Western blot of AKT protein levels in PC-3 cells). Conditions: 1 μM (FIGS. 11 and 12).
Format: cell-based, human
Experimental: PC-3, U87MG, HCC1143, MDA-MB-231, MDA-MB-468, BT474 and MCF-7 cell lines were purchased from ATCC. Cell lines were regularly tested in the lab for mycoplasma. All cells were cultured at 37° C. and 5% CO2. PC-3, U87MG, MDA-MB-231, MCF-7 and BT474 cells were cultured in 1×DMEM (Corning, 10-013-CV) with 10% fetal bovine serum (Atlanta Biologicals S11150) and 1× Penicillin/Streptomycin. HCC1143 cells were cultured in RPMI (Corning, 10-040-CV) medium with 10% fetal bovine serum (Atlanta Biologicals S11150) and 1× Penicillin/Streptomycin. Cells were split using 0.05% or 0.25% trypsin (Corning 25-051-Cl or 25-053-Cl, respectively) before they reached full confluence and media was changed every 3-4 days. Cells were treated with compounds individually at different concentrations for 24 hrs. Cells were treated with DMSO, VHL, or PML alone as controls.
Cells were lysed in 2× sample buffer (125 mM Tris-HCl at pH 6.8, 10% βME, 2% SDS, 20% glycerol, 0.05% Bromophenol Blue, 8 M urea). Protein lysates were loaded into 4-12% Bis-Tris gels and resolved by electrophoresis. Samples were then blotted on PVDF membrane (Millipore IPVH00010) using the wet transfer technique (Invitrogen). Membranes were blocked in 5% milk-TBST for 1 hour, washed in TBST for 10 min, and incubated in primary antibody in 5% milk-TBST or 5% BSA-TBST at 4° C. for 16 h. Membranes were rinsed (3×6 min) in TBST and incubated in horseradish peroxidase-conjugated secondary antibodies in 5% milk-TBST for 1 hour and rinsed again in TBST (3×6 min). Membranes were visualized using the chemiluminescence system (Thermo 34080, 37075) on autoradiography film (Denville E3018). Primary Antibodies: R-actin (Sigma A5316), p-AKT (Ser473 CST-9721), total AKT (CST-9272), p-S6 (Ser240/244, CST-5364), p-PRAS40 (Thr246, CST-2997). Secondary Antibodies: Mouse (Thermo 31432), Rabbit (Thermo 31460).
In the case of `Cc1ncsc1-c1ccc(CNC(=O)[C@@H]2C[C@@H](O)CN2C(=O)[C@@H](NC(=O)CCCCCCCCCCNC(=O)CCc2cccc(-c3ccc4nc(-c5cccnc5N)n(-c5ccc(C6(N)CCC6)cc5)c4n3)c2)C(C)(C)C)cc1` [XF067-18, (2S,4R)-1-((S)-2-(11-(3-(3-(3-(4-(1-aminocyclobutyl)phenyl)-2-(2-aminopyridin-3-yl)-3H-imidazo[4,5-b]pyridin-5-yl)phenyl)propanamido)undecanamido)-3,3-dimethylbutanoyl)-4-hydroxy-N-(4-(4-methylthiazol-5-yl)benzyl)pyrrolidine-2-carboxamide], the “suppression of AKT protein level and AKT activity” value (shortened to “suppression”) is reported as “effective in suppressing AKT protein level and AKT activity”. `CCn1c(-c2nonc2N)nc2c(C#CC(C)(C)O)ncc(OCCCNCCCC(=O)NCCCCCCCNc3cccc4c3C(=O)N(C3CCC(=O)NC3=O)C4=O)c21` (stereo not shown) [XF067-112, 4-((3-((2-(4-amino-1,2,5-oxadiazol-3-yl)-1-ethyl-4-(3-hydroxy-3-methylbut-1-yn-1-yl)-1H-imidazo[4,5-c]pyridin-7-yl)oxy)propyl)amino)-N-(7-((2-(2,6-dioxopiperidin-3-yl)-1,3-dioxoisoindolin-4-yl)amino)heptyl)butanamide] was tested, and the “suppression” value was “effective in suppressing AKT protein level and AKT activity”. For `Cc1ncsc1-c1ccc(CNC(=O)[C@@H]2C[C@@H](O)CN2C(=O)[C@@H](NC(=O)CCCCCCCCCNC(=O)CCc2cccc(-c3ccc4nc(-c5cccnc5N)n(-c5ccc(C6(N)CCC6)cc5)c4n3)c2)C(C)(C)C)cc1` [XF067-17, (2S,4R)-1-((S)-2-(10-(3-(3-(3-(4-(1-aminocyclobutyl)phenyl)-2-(2-aminopyridin-3-yl)-3H-imidazo[4,5-b]pyridin-5-yl)phenyl)propanamido)decanamido)-3,3-dimethylbutanoyl)-4-hydroxy-N-(4-(4-methylthiazol-5-yl)benzyl)pyrrolidine-2-carboxamide], the “suppression” value was “effective in suppressing AKT protein level and AKT activity”. With `Cc1ncsc1-c1ccc(CNC(=O)[C@@H]2C[C@@H](O)CN2C(=O)[C@@H](NC(=O)CCCCCCCNC(=O)CCc2cccc(-c3ccc4nc(-c5cccnc5N)n(-c5ccc(C6(N)CCC6)cc5)c4n3)c2)C(C)(C)C)cc1` [XF067-15, (2S,4R)-1-((S)-2-(8-(3-(3-(3-(4-(1-aminocyclobutyl)phenyl)-2-(2-aminopyridin-3-yl)-3H-imidazo[4,5-b]pyridin-5-yl)phenyl)propanamido)octanamido)-3,3-dimethylbutanoyl)-4-hydroxy-N-(4-(4-methylthiazol-5-yl)benzyl)pyrrolidine-2-carboxamide] the “suppression” value was “effective in suppressing AKT protein level and AKT activity”. With `CCn1c(-c2nonc2N)nc2c(C#CC(C)(C)O)ncc(OCCCNCCCC(=O)NCCCCCCCCNc3cccc4c3C(=O)N(C3CCC(=O)NC3=O)C4=O)c21` (stereo not shown) [XF067-113, 4-((3-((2-(4-amino-1,2,5-oxadiazol-3-yl)-1-ethyl-4-(3-hydroxy-3-methylbut-1-yn-1-yl)-1H-imidazo[4,5-c]pyridin-7-yl)oxy)propyl)amino)-N-(8-((2-(2,6-dioxopiperidin-3-yl)-1,3-dioxoisoindolin-4-yl)amino)octyl)butanamide] the “suppression” value was “effective in suppressing AKT protein level and AKT activity”. With `Cc1ncsc1-c1ccc(CNC(=O)[C@@H]2C[C@@H](O)CN2C(=O)[C@@H](NC(=O)CCCCCCC(=O)NCCc2cccc(-c3ccc4nc(-c5cccnc5N)n(-c5ccc(C6(N)CCC6)cc5)c4n3)c2)C(C)(C)C)cc1` [XF067-44, N^1-(3-(3-(4-(1-aminocycIobutyl)phenyl)-2-(2-aminopyridin-3-yl)-3H-imidazo[4,5-b]pyridin-5-yl)phenethyl)-N^8-((S)-1-((2S,4R)-4-hydroxy-2-((4-(4-methylthiazol-5-yl)benzyl)carbamoyl)pyrrolidin-1-yl)-3,3-dimethyl-1-oxobutan-2-yl)octanediamide] the “suppression” value was “effective in suppressing AKT protein level and AKT activity”. For `Cc1ncsc1-c1ccc(CNC(=O)[C@@H]2C[C@@H](O)CN2C(=O)[C@@H](NC(=O)CCCCCCCC(=O)NCCc2cccc(-c3ccc4nc(-c5cccnc5N)n(-c5ccc(C6(N)CCC6)cc5)c4n3)c2)C(C)(C)C)cc1` [XF067-45, N^1-(3-(3-(4-(1-aminocyclobutyl)phenyl)-2-(2-aminopyridin-3-yl)-3H-imidazo[4,5-b]pyridin-5-yl)phenethyl)-N^9-((S)-1-((2S,4R)-4-hydroxy-2-((4-(4-methylthiazol-5-yl)benzyl)carbamoyl)pyrrolidin-1-yl)-3,3-dimethyl-1-oxobutan-2-yl)nonanediamide], the “suppression” value was “effective in suppressing AKT protein level and AKT activity”. With `Cc1ncsc1-c1ccc(CNC(=O)[C@@H]2C[C@@H](O)CN2C(=O)[C@@H](NC(=O)CCCCCCCCNC(=O)CCc2cccc(-c3ccc4nc(-c5cccnc5N)n(-c5ccc(C6(N)CCC6)cc5)c4n3)c2)C(C)(C)C)cc1` [XF067-16, (2S,4R)-1-((S)-2-(9-(3-(3-(3-(4-(1-aminocyclobutyl)phenyl)-2-(2-aminopyridin-3-yl)-3H-imidazo[4,5-b]pyridin-5-yl)phenyl)propanamido)nonanamido)-3,3-dimethylbutanoyl)-4-hydroxy-N-(4-(4-methylthiazol-5-yl)benzyl)pyrrolidine-2-carboxamide] the “suppression” value was “effective in suppressing AKT protein level and AKT activity”. In the case of `Cc1ncsc1-c1ccc(CNC(=O)[C@@H]2C[C@@H](O)CN2C(=O)[C@@H](NC(=O)CCCCCCCCC(=O)NCCc2cccc(-c3ccc4nc(-c5cccnc5N)n(-c5ccc(C6(N)CCC6)cc5)c4n3)c2)C(C)(C)C)cc1` [XF067-46, N^1-(3-(3-(4-(1-aminocyclobutyl)phenyl)-2-(2-aminopyridin-3-yl)-3H-imidazo[4,5-b]pyridin-5-yl)phenethyl)-N^10-((S)-1-((2S,4R)-4-hydroxy-2-((4-(4-methylthiazol-5-yl)benzyl)carbamoyl)pyrrolidin-1-yl)-3,3-dimethyl-1-oxobutan-2-yl)decanediamide], the “suppression” value is reported as “effective in suppressing AKT protein level and AKT activity”. `CCn1c(-c2nonc2N)nc2c(C#CC(C)(C)O)ncc(OCCCNCCCC(=O)NCCCCCCCCC(=O)N[C@H](C(=O)N3C[C@H](O)C[C@H]3C(=O)NCc3ccc(-c4scnc4C)cc3)C(C)(C)C)c21` [XF067-99, (2S,4R)-1-((S)-2-(9-(4-((3-((2-(4-amino-1,2,5-oxadiazol-3-yl)-1-ethyl-4-(3-hydroxy-3-methylbut-1-yn-1-yl)-1H-imidazo[4,5-c]pyridin-7-yl)oxy)propyl)amino)butanamido)nonanamido)-3,3-dimethylbutanoyl)-4-hydroxy-N-(4-(4-methylthiazol-5-yl)benzyl)pyrrolidine-2-carboxamide] was tested, and the “suppression” value was “effective in suppressing AKT protein level and AKT activity”. For `CCn1c(-c2nonc2N)nc2c(C#CC(C)(C)O)ncc(OCCCNCCCC(=O)NCCCCCCCCCC(=O)N[C@H](C(=O)N3C[C@H](O)C[C@H]3C(=O)NCc3ccc(-c4scnc4C)cc3)C(C)(C)C)c21` [XF067-100, (2S,4R)-1-((S)-2-(10-(4-((3-((2-(4-amino-1,2,5-oxadiazol-3-yl)-1-ethyl-4-(3-hydroxy-3-methylbut-1-yn-1-yl)-1H-imidazo[4,5-c]pyridin-7-yl)oxy)propyl)amino)butanamido)decanamido)-3,3-dimethylbutanoyl)-4-hydroxy-N-(4-(4-methylthiazol-5-yl)benzyl)pyrrolidine-2-carboxamide], the “suppression” value was “effective in suppressing AKT protein level and AKT activity”.

Same assay, conditions: 1 μM for 24 h (FIGS. 11, 12)
`Nc1ncccc1-c1nc2ccc(-c3ccccc3)nc2n1-c1ccc(C2(N)CCC2)cc1` [ARQ-092, 3-(3-(4-(1-Aminocyclobutyl)phenyl)-5-phenyl-3H-imidazo[4,5-b]pyridin-2-yl)pyridin-2-amine, reference compound] was tested, and the AKT protein levels was “no effect”. For `CCn1c(-c2nonc2N)nc2c(C#CC(C)(C)O)ncc(OC[C@H]3CCCNC3)c21` [GSK690693, 4-(2-(4-amino-1,2,5-oxadiazol-3-yl)-1-ethyl-7-{[(3S)-3-piperidinylmethyl]oxy}-1H-imidazo[4,5-c]pyridin-4-yl)-2-methyl-3-butyn-2-ol, reference compound], the AKT protein levels was “no effect”.
